Assay: Measurement of the dissolution rate of the co-crystals (tDISS apparatus, pION)
Format: physicochemical
Conditions: 37° C., stirring speed 700 rpm
From the text: The results obtained are collated in the following tables and are expressed as percentage increases in the dissolution rate of the co-crystal compared to the dissolution rate obtained for agomelatine of form II contained in the marketed Valdoxan® form: [formula]

SMILES | percentage increase in the dissolution rate of the co-crystal compared to agomelatine of form II (Valdoxan) (0.01 N HCl) | percentage increase in the dissolution rate of the co-crystal compared to agomelatine of form II (Valdoxan) (pH 6.8 buffer)
COc1ccc2cccc(CCNC(C)=O)c2c1.O=C(O)CC(O)(CC(=O)O)C(=O)O [Compound of Example 1, Co-Crystal of Agomelatine/Citric Acid (1/1)] | +25% | +70%
COc1ccc2cccc(CCNC(C)=O)c2c1.COc1ccc2cccc(CCNC(C)=O)c2c1.O=C(O)c1cc(O)c(O)c(O)c1 [Compound of Example 2, Co-Crystal of Agomelatine/Gallic Acid (2/1)] | +37% | +29%
COc1ccc2cccc(CCNC(C)=O)c2c1.O=C(O)C=CC(=O)O [Compound of Example 3, Co-Crystal of Agomelatine/Maleic Acid (1/1)] | −26% | −4%
COc1ccc2cccc(CCNC(C)=O)c2c1.O=C(O)CC(=O)O [Compound of Example 4, Co-Crystal of Agomelatine/Malonic Acid (1/1)] | −55% | −21%
COc1ccc2cccc(CCNC(C)=O)c2c1.COc1ccc2cccc(CCNC(C)=O)c2c1.O=C(O)c1ccc(O)cc1 [Compound of Example 5, Co-Crystal of Agomelatine/Para-Hydroxybenzoic Acid (2/1)] | +97% | +89%
COc1ccc2cccc(CCNC(C)=O)c2c1.O=C(O)c1ccc(O)cc1.O=C(O)c1ccc(O)cc1 [Compound of Example 6, Co-Crystal of Agomelatine/Para-Hydroxybenzoic Acid (1/2)] | +19% | +46%
COc1ccc2cccc(CCNC(C)=O)c2c1.COc1ccc2cccc(CCNC(C)=O)c2c1.O=C(O)C(=O)O [Compound of Example 7, Co-Crystal of Agomelatine/Oxalic Acid (2/1)] | +1.5% | +33%
COc1ccc2cccc(CCNC(C)=O)c2c1.O=C(O)CCCC(=O)O [Compound of Example 8, Co-Crystal of Agomelatine/Glutaric Acid (1/1)] | −42% | −29%
COc1ccc2cccc(CCNC(C)=O)c2c1.O=C(O)CCC(=O)C(=O)O [Compound of Example 9, Co-Crystal of Agomelatine/Ketoglutaric Acid (1/1)] | −47% | −32%
COc1ccc2cccc(CCNC(C)=O)c2c1.O=C(O)CO [Compound of Example 10, Co-Crystal of Agomelatine/Glycolic Acid (1/1)] | −30% | −30%
